Reference: patent US20120184590A1, “FORMULATIONS OF INDOLE-3-CARBINOL DERIVED ANTITUMOR AGENTS WITH INCREASED ORAL BIOAVAILABILITY” (UNIVERSITY OF KANSAS, priority 2009, published 2012)
“Also recorded” adds a separate entry of the source. Marks after values point to notes of the source that are not given here.

Columns and labels:
[1] = Oral bioavailability of PEG400:Labrasol formulation in rats; settings: rat, in vivo
[2] = Time for syringe dosage forms to dissolve in warm water; format: physicochemical; settings: shaken in warm water (approximately 40° C.)
Procedure: A similar set of sample tubes was prepared for a monkey study. Twenty-eight tubes with 11.2±0.1 g of 5 mg/g SR13668 in Solutol were prepared providing a dose of 56 mg SR13668 per tube. A set of 3-mL disposable plastic syringes were prepared containing a 5 mg dose of SR13668 in either Solutol, Vit E TPGS or 1:1 Solutol:Vit E TPGS. The syringes were prepared so the dosage form could be pushed out and dissolved in warm water to administer to monkeys by gavage. The syringes were prepared by (a) cutting off the tip-end at the 0.1 mL mark of a plastic, disposable 3-mL syringe, (b) pulling back the plunger, (c) filling the syringe by weight with the liquid melt at 65° C. to give the correct dosage and (d) allowing the formulation to harden. Each formulation contained between 3.5-4.2 mg SR13668/g matrix and approximately 1.2 g of the formulation was needed in each syringe to give a 5 mg dose. The syringes were fairly easy to make and to expel the dosage form into warm water. The doses where shaken in warm water (approximately 40° C.) and took the following amounts of time to dissolve: <1 min. for Solutol, 15 min for 1:1 Solutol:Vit E TPGS, and 37 min for Vit E TPGS.

[3] = Clinical observations and clinical pathology in dogs; format: in vivo, beagle dogs; settings: for ALT / AST / LDH: day 2 following a single dose
Procedure: For both species, each animal was part of each experimental group, with a 7-day interval between treatments to allow for washout of the dosing formulation and its effects. Dosing formulations of SR13668 were administered by oral gavage (intragastric) or intravenous (i.v.) injection as a single dose or once daily for seven consecutive days. Oral to doses were administered at a dosing volume of 5 mL/kg of body weight, while intravenous doses were administered at a dosing volume of 0.5 mL/kg of body weight. Dogs were dosed with 93.6 mg/m^2 SR13668 intravenously in DMSO:PEG300 15:85 (v/v) or orally in Solutol® vehicle (two groups, fed and after an overnight fast). Monkeys were dosed with 84.2 mg/m^2 SR13668 intravenously in DMSO:PEG300 15:85 (v/v) or orally (336.7 mg/m^2 SR13668 for the oral high dose group) in PEG400:Labrasol® 1:1 (v/v) or Solutol® vehicles. Vehicle control groups were used to assess the tolerability of the vehicle and for clinical pathology evaluations.
At the end of each dosing period, the animals were examined for detailed clinical signs and symptoms (i.e., alterations of teeth, nose, eyes, perineum, pelage and body orifices; changes in appearance or behavior) and/or presence of any tissue masses. Body weights were recorded prior to treatment and daily during each testing interval. Quantitative (grams/day) food consumption data were recorded for dogs on a daily basis during each testing interval. Qualitative food consumption observations were recorded for monkeys on a daily basis during each testing interval. Blood samples for clinical pathology (clinical chemistry, hematology, and coagulation) parameter evaluation were collected from dogs and monkeys prior to dosing and on Days 2 and 8 post-dose, as well as from monkeys on Days 15 and 30 post-dose.

[4] = Green C., unpublished results; cited from earlier work
[5] = 93.6 mg/m^2 (4.68 mg/kg) iv, DMSO:PEG300 15:85 v/v, fed
[6] = 93.6 mg/m^2 (4.68 mg/kg) oral gavage, Solutol, fasted
[7] = 93.6 mg/m^2 (4.68 mg/kg) oral gavage, Solutol, fed

Compound: CCOC(=O)c1ccc2[nH]c3c(OC)c4[nH]c5ccc(C(=O)OCC)cc5c4cc3c2c1 [SR13668, 2,10-dicarbethoxy-6-methoxy-5,7-dihydro-indolo-(2,3-b)carbazole]
- bioavailability [1]: < 1%
- time to dissolve ([2]; 5 mg dose of SR13668 in 1:1 Solutol:Vit E TPGS): 15 min
- time to dissolve ([2]; 5 mg dose of SR13668 in Solutol): < 1 min
- time to dissolve ([2]; 5 mg dose of SR13668 in Vit E TPGS): 37 min
- adverse treatment-related clinical observations [3]: vomiting in fasted dogs
- effects on body weights, body weight gains or food consumption [3]: No significant treatment-related effects on body weights, body weight gains or food consumption
- effects on clinical pathology (clinical chemistry, hematology, coagulation) [3]: did not cause untoward hematology, clinical chemistry, or coagulation effects; also recorded: No treatment-related effects on any clinical pathology variables
- mortality or morbidity [3]: no mortalities or morbidity
- ALT [3, 5]: 41.8 ± 5.4 IU/L
- AST [3, 5]: 30.8 ± 5.2 IU/L
- LDH [3, 5]: 54.8 ± 23 ^c IU/L
- ALT [3, 6]: 44.8 ± 10 IU/L
- AST [3, 6]: 30.8 ± 7.2 IU/L
- LDH [3, 6]: 56.3 ± 9.4 IU/L
- ALT [3, 7]: 39.5 ± 4.7 IU/L
- AST [3, 7]: 29.3 ± 3.6 IU/L
- LDH [3, 7]: 30.3 ± 6.2 ^c IU/L
- metabolism in rat microsomes [4]: slow metabolism
